The text below walks through data of ChEMBL document CHEMBL1136499, “Tripeptidyl-peptidase II (TPP II) inhibitory activity of (S)-2,3-dihydro-2-(1H-imidazol-2-yl)-1H-indoles, a systematic SAR evaluation. Part 2” (Bioorg Med Chem Lett, 2003).

Molecules are shown by their SMILES.

For this assay, the target named is Tripeptidyl-peptidase 2 (Rattus norvegicus, UniProt Q64560). The experiment in a line: Inhibition of Tripeptidyl-peptidase II purified from a rat liver post-lysosomal fraction.
Sequence of Tripeptidyl-peptidase 2 (Q64560 whole entry): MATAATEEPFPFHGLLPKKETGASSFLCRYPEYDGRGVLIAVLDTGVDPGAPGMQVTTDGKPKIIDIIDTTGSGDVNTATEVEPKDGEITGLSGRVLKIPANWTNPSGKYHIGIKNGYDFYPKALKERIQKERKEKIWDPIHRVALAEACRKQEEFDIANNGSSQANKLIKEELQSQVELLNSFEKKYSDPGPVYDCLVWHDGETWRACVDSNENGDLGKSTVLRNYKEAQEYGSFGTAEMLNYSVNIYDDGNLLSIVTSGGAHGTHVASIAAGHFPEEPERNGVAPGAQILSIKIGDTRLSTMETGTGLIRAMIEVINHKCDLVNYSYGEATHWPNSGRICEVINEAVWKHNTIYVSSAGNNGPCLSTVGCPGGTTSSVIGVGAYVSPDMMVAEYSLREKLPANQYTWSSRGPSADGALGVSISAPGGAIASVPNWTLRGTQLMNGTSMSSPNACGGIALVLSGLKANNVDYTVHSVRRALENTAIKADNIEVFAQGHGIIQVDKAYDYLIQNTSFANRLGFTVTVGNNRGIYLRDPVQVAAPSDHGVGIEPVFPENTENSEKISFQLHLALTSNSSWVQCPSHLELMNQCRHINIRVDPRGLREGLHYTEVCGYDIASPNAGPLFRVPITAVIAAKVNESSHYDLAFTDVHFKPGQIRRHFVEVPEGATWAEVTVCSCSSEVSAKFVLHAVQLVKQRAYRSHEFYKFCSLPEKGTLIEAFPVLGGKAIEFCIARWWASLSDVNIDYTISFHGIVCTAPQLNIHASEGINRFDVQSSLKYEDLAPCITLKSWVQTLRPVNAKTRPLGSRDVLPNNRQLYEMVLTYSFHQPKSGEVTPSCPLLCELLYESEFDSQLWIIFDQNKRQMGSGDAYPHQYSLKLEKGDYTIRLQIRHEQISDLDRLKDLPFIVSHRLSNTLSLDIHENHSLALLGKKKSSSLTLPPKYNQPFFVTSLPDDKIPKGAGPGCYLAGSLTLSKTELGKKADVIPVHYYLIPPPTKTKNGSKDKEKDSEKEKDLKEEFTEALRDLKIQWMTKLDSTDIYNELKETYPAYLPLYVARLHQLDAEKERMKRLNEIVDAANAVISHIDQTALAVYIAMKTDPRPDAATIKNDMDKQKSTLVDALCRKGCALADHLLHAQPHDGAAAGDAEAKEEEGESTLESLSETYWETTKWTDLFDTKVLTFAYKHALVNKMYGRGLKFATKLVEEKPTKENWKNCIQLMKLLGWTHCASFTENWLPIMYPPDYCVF
One may read the IC50 as the concentration at which inhibition is half-maximal. Read a high IC50 as weaker potency in that assay. `CCCc1cnc([C@@H]2Cc3ccccc3N2C(=O)c2ccccc2N)[nH]1` showed an IC50 greater than 10000 nM. Molecule `CCCc1nnc([C@@H]2Cc3ccccc3N2C(=O)CN)o1` had an IC50 of 2200 nM. The same measure for `CCc1cnc([C@@H]2Cc3ccccc3N2C[C@H](C)N)[nH]1`: greater than 10000 nM; for `CCCc1c[nH]c([C@@H]2Cc3cc(OC)ccc3N2C(=O)CN)n1`: 70 nM; for `CCCc1c[nH]c([C@@H]2Cc3ccccc3N2C(=O)c2c[nH]cn2)n1`: greater than 10000 nM.

`CCCc1[nH]c([C@@H]2Cc3ccccc3N2C(=O)CN)nc1C(=O)OCC`: 210 nM corresponded to half-maximal inhibition (IC50). Next, `CCCc1cnc([C@@H]2Cc3ccccc3N2C(=O)[C@H]2CCCN2)[nH]1`: 1400 nM; `CCCc1nnc([C@@H]2Cc3ccccc3N2C(=O)CN)[nH]1`: greater than 10000 nM. In turn, `CCCc1cnc([C@@H]2Cc3ccccc3N2C(=O)[C@@H](N)Cc2ccccc2)[nH]1` had an IC50 of 2300 nM. As to `C[C@H](N)C(=O)N1c2ccccc2C[C@H]1c1nc2ccccc2[nH]1`, half-maximal inhibition (IC50) was put at 1400 nM. Next, `CCCc1cnc([C@@H]2Cc3cc(F)ccc3N2C(=O)CN)[nH]1`: 46 nM. `CCCc1cnc([C@@H]2Cc3ccccc3N2C(=O)c2cccc([N+](=O)[O-])c2)[nH]1` came in with an IC50 greater than 10000 nM. In the case of `CCC(N)C(=O)N1c2ccccc2C[C@H]1c1nc2ccccc2[nH]1` (stereo partly specified), the IC50 came out at 450 nM.

In the case of `CCc1cn(C)c([C@@H]2Cc3ccccc3N2C(=O)CN)n1`, the IC50 was 2100 nM. Next, `CCCc1c[nH]c([C@@H]2Cc3cc(OC)ccc3N2C(=O)[C@H](C)N)n1`: 16 nM; `CCCc1c[nH]c([C@@H]2Cc3ccccc3N2C(=O)[C@@H](N)C(C)C)n1`: 20 nM; `CCCc1c[nH]c([C@@H]2Cc3ccccc3N2C(=O)[C@H](N)CC)n1`: 4 nM.

`CCc1cnc([C@@H]2Cc3ccccc3N2C(=O)CN)n1C` had an IC50 greater than 10000 nM. `CCc1c[nH]c([C@@H]2Cc3ccccc3N2C(=O)[C@H](C)N)n1` yielded an IC50 of 23 nM. As to `CCCc1c[nH]c([C@@H]2Cc3ccccc3N2C(=O)CN)n1`, the IC50 turned out to be 36 nM. Against the preceding molecule, the IC50 is about 1.6-fold higher. The same measure for `CCCc1c[nH]c([C@@H]2Cc3ccccc3N2C(=O)[C@@H](N)CCC)n1`: 4 nM. Turning to `CCCc1c[nH]c([C@@H]2Cc3ccccc3N2C(=O)c2cccc(N)c2)n1`, the IC50 was greater than 10000 nM. Next, `CCCc1nc([C@@H]2Cc3ccccc3N2C(=O)CN)[nH]c1C(N)=O`: 200 nM. Next, `CCc1cnc([C@@H]2Cc3ccccc3N2C(=O)CN)s1`: 7700 nM; `CCCc1c[nH]c([C@@H]2Cc3ccccc3N2C(=O)[C@H](C)NC)n1`: greater than 10000 nM; `NCC(=O)N1c2ccccc2C[C@H]1c1nc(-c2ccccc2)c[nH]1`: greater than 10000 nM.

`CCCCc1cnc([C@@H]2Cc3ccccc3N2C(=O)CN)[nH]1` displayed an IC50 of 50 nM.

Molecule `CCCc1cnc([C@@H]2Cc3cc(Cl)ccc3N2C(=O)[C@H](C)N)[nH]1` had an IC50 of 5 nM. The same measure for `CCc1c[nH]c([C@@H]2Cc3ccccc3N2C(=O)CN)n1`: 194 nM.

Take `CCCc1[nH]c([C@@H]2Cc3ccccc3N2C(=O)CN)nc1C(=O)NCC(=O)OC`: the IC50 amounted to 135 nM. As to `CCCc1c[nH]c([C@@H]2Cc3cc(Cl)ccc3N2C(=O)CN)n1`, half-maximal inhibition (IC50) was put at 11 nM. Against the preceding molecule, the IC50 is about 12-fold lower.

On to `CCCc1[nH]c([C@@H]2Cc3ccccc3N2C(=O)CN)nc1C`, for which half-maximal inhibition (IC50) required 55 nM. Next, `CCCc1cnc([C@@H]2Cc3ccccc3N2C(=O)c2ccccc2[N+](=O)[O-])[nH]1`: greater than 10000 nM; `CCCc1cnc([C@@H]2Cc3ccccc3N2C(=O)CCN)[nH]1`: greater than 10000 nM; `CCCc1c[nH]c([C@@H]2CCc3ccccc3N2C(=O)[C@H](C)N)n1` (stereo in doubt; form 1): 800 nM. The same measure for `CCCc1c[nH]c([C@@H]2CCc3ccccc3N2C(=O)[C@H](C)N)n1` (stereo in doubt; form 2): 400 nM.
